# Reference: publication PMC6874683, “Pyrrothiogatain acts as an inhibitor of GATA family proteins and inhibits Th2 cell differentiation in vitro” (Scientific Reports, 2019)
# Where “and” joins values, the source holds several entries; their conditions need not be identical. Equal entries are not always repeated.
# Assays:
# [1] = biological target: T1, GATA5 (Homo sapiens, UniProt Q9BWX5); assay: AlphaScreen DNA-binding assay, GATA5; conditions: pyrrothiogatain 0 to 200 µM
# T1 construct: we tried to synthesize their full-length proteins using the cell-free system; made in house; host or cells: wheat cell-free protein synthesis system (WEPRO1240 kit)
# Method: For the protein-DNA binding assay on a 384-well AlphaPlate (Perkin Elmer), 10 μL of bait protein mixture containing 1 µL FLAG-tagged protein in AlphaScreen Buffer (100 mM Tris-HCl (pH 8.0), 150 mM NaCl, 0.1% Tween 20, and 1 mg/mL BSA) and 5 µL biotinylated oligonucleotide (0–10 µM final concentration) in AlphaScreen Buffer were dispended into the AlphaPlate. Then, the plate was incubated at 26 °C for 1 h. After incubation, 10 μL of the detection mixture containing 0.4 µg/mL Anti-DYKDDDDK antibody (1E6, Wako), 0.1 μL streptavidin-conjugated AlphaScreen donor beads, and 0.1 μL protein A-conjugated AlphaScreen acceptor beads in AlphaScreen Buffer was mixed and incubated at 26 °C for 1 h, and then, the AlphaScreen signal was detected using an EnVision device with the AlphaScreen signal detection program (PerkinElmer).
# For the AlphaScreen-based chemical library screening, we used a diverse set of 9,600 synthesized chemicals established by the Drug Discovery Initiative (The University of Tokyo, Tokyo, Japan). All chemical compounds (10 mM) were dissolved in DMSO, and were pre-dispensed into a 384-well Alphaplate (250 nL/well). […] The AlphaScreen signal was detected using an EnVision device with the AlphaScreen signal detection program (PerkinElmer). […]
# [2] = test system: Th2 cytokine and GATA3 mRNA; assay: Quantitative RT-PCR, naive CD4+ T cells under Th2 conditions; assay type: cell-based, mouse; conditions: 5 days
# Method: (§1) C57BL/6 mice were purchased from Clea (Clea Japan, Inc., Tokyo, Japan). Total CD4^+ T cells isolated from mouse spleen were prepared using a FITC anti-mouse CD4 antibody (Cat#100510, RM4–5, BioLegend) and anti-FITC-microbeads (Cat#130-097-050, Miltenyi Biotec). Naive CD4^+ T cells (CD44^low, CD62L^high) were prepared using a MojoSort Mouse CD4 T cell Isolation Kit (Cat#480033), BioLegend). Biotinylated anti-CD44 (Cat#103004, IM7) and anti-CD25 antibodies (Cat#102004, PC61) were purchased from BioLegend. CD4^+ T cells (7.5 × 10^5) were stimulated using immobilized anti-TCR-β mAb (3 µg/mL, H57–597, BioLegend) plus an anti-CD28 mAb (1.0 µg/mL, cat#40–0281, TONBO Biosciences) for 2 days, and then, the cells were further expanded under similar conditions for an additional 3 days. IL-2 conditions: IL-2 (10 ng/mL, Pepro Tech); Th2 conditions: IL-2 (10 ng/mL, Pepro Tech), IL-4 (1 ng/mL, Pepro Tech), and anti-IFN-γ mAb (2.5 µg/mL, cat#40–731, TONBO Biosciences). Th1 conditions: IL-2 (10 ng/mL, Pepro Tech), IL-12 (1 ng/mL, Pepro Tech), and anti-IL-4 mAb (2.5 µg/mL, cat#40–731, TONBO Biosciences). The cultured cells were subjected to intracellular staining, ELISA assay, and RT-PCR. All animal experiments received approval from the Ehime University Administrative Panel for Animal Care. All animal care was conducted in accordance with the guidelines of Ehime University. […]
# [3] = test system: Th2 cell differentiation; assay: Intracellular cytokine staining, total CD4+ T cells under IL-2 conditions; assay type: cell-based, mouse; conditions: 30 µM, five days
# Method: as §1, with “Biosciences).” for “Biosciences). Th1 conditions: IL-2 (10 ng/mL, Pepro Tech), IL-12 (1 ng/mL, Pepro Tech), and anti-IL-4 mAb (2.5 µg/mL, cat#40–731, TONBO Biosciences). The cultured cells were subjected to intracellular staining, ELISA assay, and RT-PCR. All animal experiments received approval from the Ehime University Administrative Panel for Animal Care. All animal care was conducted in accordance with the guidelines of Ehime University.”
# The in vitro differentiated CD4^+ T cells were stimulated using an immobilized anti-TCR-β mAb (3 µg/ml, H57–597, BioLegend) for 6 h in the presence of monensin (2 µM). […] Flow cytometry was performed using a Gallios Flow Cytometer instrument (Beckman Coulter) and a FACS Caliber instrument (BD Biosciences) and the results were analysed using the FlowJo software program (Tree Star, Ashland, OR, USA). […]
# T1 sequence (Q9BWX5 whole entry, species assumed): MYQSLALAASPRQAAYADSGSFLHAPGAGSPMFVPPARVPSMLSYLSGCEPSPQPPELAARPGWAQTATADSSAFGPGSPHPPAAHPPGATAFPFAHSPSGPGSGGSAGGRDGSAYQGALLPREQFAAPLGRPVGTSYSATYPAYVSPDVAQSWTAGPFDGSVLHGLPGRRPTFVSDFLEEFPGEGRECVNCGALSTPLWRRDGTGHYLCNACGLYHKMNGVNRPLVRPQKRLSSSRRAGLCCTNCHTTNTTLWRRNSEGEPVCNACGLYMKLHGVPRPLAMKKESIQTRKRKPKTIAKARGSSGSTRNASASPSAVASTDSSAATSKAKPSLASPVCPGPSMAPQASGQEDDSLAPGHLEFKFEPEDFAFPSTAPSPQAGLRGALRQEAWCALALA
structure (smiles),measurement,setting,value
"Cc1ccc(C)n1-c1ccsc1C(=O)O [Pyrrothiogatain, 3-(2,5-dimethyl-1H-pyrrol-1-yl)thiophene-2-carboxylic acid]",IC50,[1],~50 µM and 49.5 µM
same,"mRNA expression of IL-4, IL-5 and IL-13 (RT-qPCR)",[2]; 30 and 80 µM,Decreased
same,"Expression of GATA3, mRNA level",[2],not influenced
same,"Generation of IL-4-, IL-5-, and IL-13-producing cells",[3],repressed
same,Number of Th1 cells producing IFN-γ,[3],increased
